One experiment addresses T1, 5HT2C (Homo sapiens, UniProt P28335).
T1 sequence (P28335 33-458): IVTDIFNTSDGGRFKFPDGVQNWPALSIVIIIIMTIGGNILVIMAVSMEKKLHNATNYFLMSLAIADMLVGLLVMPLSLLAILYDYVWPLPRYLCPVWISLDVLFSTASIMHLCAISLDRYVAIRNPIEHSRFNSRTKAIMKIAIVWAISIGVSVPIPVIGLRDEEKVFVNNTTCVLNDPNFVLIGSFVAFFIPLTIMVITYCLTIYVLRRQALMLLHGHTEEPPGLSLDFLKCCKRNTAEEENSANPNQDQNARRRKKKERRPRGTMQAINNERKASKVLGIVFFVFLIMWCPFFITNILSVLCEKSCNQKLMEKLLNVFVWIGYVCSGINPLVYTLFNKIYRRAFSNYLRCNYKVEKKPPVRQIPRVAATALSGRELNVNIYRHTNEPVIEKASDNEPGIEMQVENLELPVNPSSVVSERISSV
Kind of experiment: selectivity of 5HT2A inverse agonist over 5HT2C. The conditions noted are these: 5HT2A over 5HT2C.

Experiment [1] relates to panel of 66 receptors and ion channels. Put plainly: panel of 66 receptors and ion channels.
Experiment [2] deals with C57Bl/6J male mice. Put plainly: PCP-induced hyperlocomotion in open field activity monitors. The class given is in vivo. As to conditions: Mus musculus.
Experimental: PCP-induced hyperlocomotion was measured in open field activity monitor chambers. […] All studies were performed in a blinded and randomized manner and potencies were calculated. Clozapine was used as the basis for comparison.
The data depicted in FIGS. 2-5, summarizes Mouse data—Male C57BL6J mice from JAX ˜12 weeks old. Studies were randomized and investigator was blinded. The figures contain three ways of analyzing the data obtained from the Versamax open field activity monitors on the same cohort of mice. The infrared beams in the chambers measure breaks in X, Y, and Z planes. Typically data are reported for Horizontal beam breaks and sometimes for distance travelled and stereotypy in studies involving PCP.
Male C57BL6 mice from JAX were used at 12-15 weeks of age, n=6 for all conditions). All mice were naïve at the time of testing. […] Mice were then treated with 0.9% saline (i.p.) or PCP (10 mg/kg, i.p.) and monitored for an additional 60 minutes. All measurements were recorded by VersaMax software, and experimenter was blinded to treatment. The summary figure is a compilation of distance travelled over the last 60 minutes with drug treatment. […] Data analyzed via two-way ANOVA followed by Sidak post hoc test to assess statistical differences between animals which received saline of PCP following nelotanserin, clozapine, or vehicle.
Male C57BL6 mice from JAX were used at 12-15 weeks of age, n=6 for all conditions). All mice were naïve at the time of testing. […] Mice were then treated with 0.9% saline (i.p.) or PCP (10 mg/kg, i.p.) and monitored for an additional 60 minutes. All measurements were recorded by VersaMax software, and experimenter was blinded to treatment. The summary figure is a compilation of the sum of beam breaks (X, Y plane) monitored over the last 60 minutes. […] Data analyzed via two-way ANOVA followed by Sidak post hoc test to assess statistical differences between animals which received saline of PCP following nelotanserin, clozapine, or vehicle.
Male C57BL6 mice from JAX were used at 12-15 weeks of age, n=6 for all conditions). All mice were naïve at the time of testing. […] Mice were then treated with 0.9% saline (i.p.) or PCP (10 mg/kg, i.p.) and monitored for an additional 60 minutes. All measurements were recorded by VersaMax software, and experimenter was blinded to treatment. The summary figure is a compilation of the sum of beam breaks (X, Y, Z stereotypy measures) monitored over the last 60 minutes. […] Data analyzed via two-way ANOVA followed by Sidak post hoc test to assess statistical differences between animals which received saline of PCP following nelotanserin, clozapine, or vehicle.
For experiment [3], the target named is T2, 5HT2A receptor (h5HT2A-Dx-U2OS cells) (Homo sapiens, UniProt P28223).
T2 construct: beta-galactosidase enzyme fragment for complementation (the print says only EFC; from my own knowledge of PathHunter it is the ProLink tag on the receptor's C-terminus); host or cells: U2OS (h5HT2A-Dx-U2OS)
Put plainly: cell-based.
Experimental: Cells were incubated with nelotanserin or clozapine for 90 minutes at 37° C. followed by addition of DiscoverX detection reagent for 60 minutes, after which luminescence was measured.
Drug treatment was performed for 90 minutes at 37 degrees Celsius followed by addition of DiscoverX detection reagent for 60 minutes at room temperature, after which luminescence was measured.
Cells were incubated with nelotanserin or clozapine for 90 minutes at 37° C. followed by addition of DiscoveRx detection reagent for 60 minutes, after which luminescence was measured.

For experiment [4], the system named is C57Bl/6J male mice. Put plainly: DOI-induced head twitch response in mice. The conditions noted are these: Mus musculus. The class given is in vivo.
The subject of experiment [5] is serotonin-induced intracellular calcium release. Put plainly: serotonin-induced intracellular calcium release assay. The class given is cell-based. As to conditions: FIG. 6. A general note: Calcium assays in cells follow changes in intracellular calcium, usually with a dye or a luminescent sensor.
Setting [6] is: compound alone, βarrestin2 recruitment.

pEC50, pIC50: −log10 of the molar value.

T2 sequence (P28223 whole entry, the tested form may be a part): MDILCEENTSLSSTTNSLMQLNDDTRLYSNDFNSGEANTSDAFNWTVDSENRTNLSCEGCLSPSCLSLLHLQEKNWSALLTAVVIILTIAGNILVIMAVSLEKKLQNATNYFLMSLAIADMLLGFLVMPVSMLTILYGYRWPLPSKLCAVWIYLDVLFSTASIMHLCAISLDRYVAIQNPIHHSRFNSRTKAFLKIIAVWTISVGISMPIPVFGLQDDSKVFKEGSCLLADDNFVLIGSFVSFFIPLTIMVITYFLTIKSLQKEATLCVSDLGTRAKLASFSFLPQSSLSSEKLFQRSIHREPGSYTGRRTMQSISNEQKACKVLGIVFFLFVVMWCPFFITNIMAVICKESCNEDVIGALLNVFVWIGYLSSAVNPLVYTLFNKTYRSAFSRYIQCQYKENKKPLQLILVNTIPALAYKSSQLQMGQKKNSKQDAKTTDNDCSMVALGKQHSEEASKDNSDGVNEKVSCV

As usually defined, the pEC50 is the EC50 on a negative log10 scale, so that one unit is a factor of ten. A higher pEC50 goes with a low EC50. The term pIC50 denotes −log10 of the IC50, conventionally taken in molar units. As for `COc1ccc(NC(=O)Nc2ccc(F)cc2F)cc1-c1c(Br)cnn1C` [Nelotanserin, nelotanserin], the “selectivity over 5HT2C” value at 5HT2C is 80 fold. Further, the “activity in a panel of 66 receptors and ion channels” value in experiment [1] was “inactive”. The ED50 with C57Bl/6J male mice [2] (ip, 1 h, beam breaks X, Y, Z, nelotanserin 1-10 mg/kg i.p., PCP 10 mg/kg i.p., last 60 minutes, read-out: ED 50 (95% confidence limits), stereotypy counts of FIG. 4) came to 3.8 mg/kg; in the experiment on C57Bl/6J male mice [2] (ip, 1 h, horizontal beam breaks (X, Y plane), nelotanserin 1-10 mg/kg i.p., PCP 10 mg/kg i.p., last 60 minutes, read-out: ED 50 (95% confidence limits), beam breaks data of FIG. 3), 4.3 mg/kg; in the experiment with C57Bl/6J male mice [2] (ip, 1 h, nelotanserin 1-10 mg/kg i.p., PCP 10 mg/kg i.p., last 60 minutes, read-out: ED 50 (95% confidence limits), total distance traveled data of FIG. 2), 3 mg/kg; with C57Bl/6J male mice [2] (i.p., 30 minutes before PCP 10 mg/kg i.p., read-out: ED50 (95% CL), inhibition of PCP-induced hyperlocomotor activity) it was 3 mg/kg; in the experiment with C57Bl/6J male mice [4] (read-out: ED50 (95% CL), block of DOI-induced head twitches), 2.4 mg/kg; in the experiment on C57Bl/6J male mice [4] (read-out: ED 50 (95% confidence limits), DOI-induced head twitch of FIG. 5), 2.4 mg/kg. The molecule further showed a pEC50 in experiment [3] of 8.43. In addition, the “% Max of 5HT” value in experiment [3] (setting [6]) was −2.21%. The Fold in experiment [3] (setting [6]) is given as 0.90 Fold. Besides, the pIC50 in experiment [3] (serotonin-induced, h5HT2A-Dx-U2OS cells, 90 minutes at 37° C., read-out: IC50 (SEM), antagonist of the recruitment of β-arrestin 2 to the 5HT2A receptor) was 8.43. For the same molecule, the “serotonin-induced intracellular calcium release” value in experiment [5] was “inhibited”. Further, the “potency relative to pimavanserin or clozapine, intracellular calcium release” value in experiment [5] (serotonin-induced) is recorded as “about 2 fold”.
In the case of `NCCc1c[nH]c2ccc(O)cc12` [Compound 5HT, serotonin, reference compound], the “% Max of 5HT” value in experiment [3] (setting [6]) is given as 98.20%.

The values above are taken from US20210128528A1, “USE OF 5HT2A INVERSE AGONISTS FOR TREATING PSYCHOSIS” (Axovant Sciences GmbH, priority 2017, published 2021).
